Measurements reported in patent publication US12195706B2, “Formation of arrays of planar intestinal crypts possessing a stem/proliferative cell compartment and differentiated cell zone” (THE UNIVERSITY OF NORTH CAROLINA AT CHAPEL HILL, priority 2018, dated 2025).

Key:
[1] = test system: intestinal tumor cell lines; conditions: cited from earlier work
[2] = test system: mouse intestinal epithelial cells; experiment: Effect of short chain fatty acids on proliferation and differentiation on planar crypt arrays; assay type: cell-based; conditions: day 3-4 (DM/EM); for ALP activity relative to the control / normalized area of EdU+ cells compared to control without short chain fatty acid: 24 mM acetate, 6 mM propionate or 1 mM butyrate in DM luminal medium; for ALP activity relative to the control: ALP+ area normalized to Hoechst 33342 area; for normalized area of EdU+ cells compared to control without short chain fatty acid: EdU+ area normalized to Hoechst 33342 area
Experimental: EM was replaced with fresh EM every 2 days. The cells were sub-cultured every 3-5 days by degrading collagen with collagenase and dissociating the cells with 0.5 mM EDTA into clumps of cells. […] When placing cells onto the surface of the microdevice, the cell suspension was diluted 1 to 2 in EM and overlaid onto the microdevice surface. The cells were cultured for 2 days with EM placed into the luminal and basal reservoirs of the Transwell cassette. On day 2, the luminal and basal media were changed as described in Table 3, below, and the cells incubated for a day. On day 3, the luminal and basal media were replaced with fresh media (identical to that from day 2 replacement) and the cells incubated for another day. In some experiments, the medium in the luminal compartment was replaced differentiation medium (DM, see Table 2) which is similar to EM but lacking in key growth factors required to support intestinal stem cells.
Cells in the S phase of the cell cycle were incubated with a pulse of 5-ethynyl-2′-deoxyuridine (EdU) pulse following the manufacturers' protocols (Click-iT EdU Alexa Fluor 647 Imaging kit, C10340, Thermo Fisher Scientific, Waltham, Massachusetts, United States of America). EdU is a nucleotide analog incorporated into DNA as it is replicated in S phase. In brief, EdU (10 μM) was added to the luminal and basal media and the cells were incubated for 3 h at 37° C. The cells then were washed with PBS and fixed with 4% paraformaldehyde in PBS for 15 min and permeabilized with 0.5% Triton-X for 20 min at 25° C. EdU incorporated into cellular DNA was visualized by reaction with Alexa 647 via click chemistry following the manufacturer's protocol (Click-iT EdU Alexa Fluor 647 Imaging kit, C10340, Thermo Fisher Scientific, Waltham, Massachusetts, United States of America).
Cell monolayers were assayed for alkaline phosphatase (ALP) activity on day 4 of culture by incubation with ALP substrate mixture (Vector Red AP substrate kit, SK-5100, Vector Laboratories Inc., Burlingame, California, United States of America) in Tris buffer (pH 8.4) for 30 min at 37° C. Then cells were washed with PBS, fixed and permeabilized as described above. To label cell DNA, Hoechst 33342 (2 μg/mL, B2261, Sigma Aldrich, St. Louis, Missouri, United States of America) was incubated with cells (1 h, 25° C.).
The […] ® insert (Corning, Inc., Corning, New York, United States of America) with cell layer from the microdevice was placed into a 12-well plate under PBS and imaged using a FLUOVIEW® FV3000® confocal microscope (Olympus Corporation, Tokyo, Japan) confocal microscope (10×, objective, numerical aperture of 0.4). Alexa 647, Vector-Red-ALP, and Hoechst 33342 were excited with a 640, 561, and 405 nm laser, respectively and the fluorescence emission was collected at 650-750 nm, 570-590 nm, and 430-470 nm, respectively. The images were analyzed with the Fiji software package. […] For all experiments, the numbers of sample sizes were estimated using a statistical power analysis based on the data from Wang et al. (Cellular and Molecular Gastroenterology and Hepatology, 2017, 4, 165-182) measuring EdU+ and ALP activities under varying conditions (α=0.05, β=0.85) using G*Power. […] A one-way ANOVA analysis was used for all statistical analyses of data obtained from the fluorescence microscopy images.

SMILES	proliferation in intestinal tumor cell lines [1]	ALP activity relative to the control [2]	normalized area of EdU+ cells compared to control without short chain fatty acid [2]	decrease of the number of Hoechst 33342+ cells per crypt ([2]; 1 mM butyrate in DM luminal medium, vs control crypts, p<0.001)
CCC(=O)O [propionate]	suppress proliferation	significantly increased	significantly decreased	
CC(=O)O [acetate]		significantly decreased	significantly increased	
CCCC(=O)O [butyrate]				about 17%
